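Exposure lasted 48 hours, with cells grown in 96-well plates and compounds tested at five concentrations. The concentration for 50% growth inhibition is given as GI50.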 Calls of active or inactive are those of the source. No stated cut-off is given here; in the data, active = GI50 up to about 1.1 µM and inactive = higher.
How the values were obtained:
Experiment in all cases: NCI-60 cell line screen, 48 h
BT-549 = tested on: BT-549
COLO 205 = tested on: COLO 205
DU-145 = tested on: DU-145
HOP-62 = tested on: HOP-62
Hs-578T = tested on: Hs-578T
K562 = tested on: K562
M14 = tested on: M14
MCF7 = tested on: MCF7
MDA-N = tested on: MDA-N
Malme-3M = tested on: Malme-3M
NCI-H226 = tested on: NCI-H226
OVCAR-3 = tested on: OVCAR-3
OVCAR-5 = tested on: OVCAR-5
OVCAR-8 = tested on: OVCAR-8
PC-3 = tested on: PC-3
RPMI-8226 = tested on: RPMI-8226
SK-MEL-2 = tested on: SK-MEL-2
SK-OV-3 = tested on: SK-OV-3
SNB-19 = tested on: SNB-19
SR = tested on: SR

Measured: GI50

COC(=O)CNC(=O)C(Cc1ccccc1)NC(=O)c1ccc(-c2ccc(Cl)cc2Cl)o1 (stereo not given)
inactive: BT-549 26.4 µM | COLO 205 14.6 µM | DU-145 37.6 µM | HOP-62 26.8 µM | Hs-578T 15.3 µM | K562 21.3 µM | M14 30.9 µM | MCF7 17.8 µM | MDA-N 24.8 µM | Malme-3M 21.5 µM | NCI-H226 48.4 µM | OVCAR-3 22.4 µM | OVCAR-5 28.4 µM | OVCAR-8 25.1 µM | PC-3 21.1 µM | RPMI-8226 12.3 µM | SK-MEL-2 28.3 µM | SK-OV-3 24.9 µM | SNB-19 35.3 µM | SR 14.9 µM

NS(=O)(=O)c1ccc(NC(NC(=O)C(C(F)(F)F)C(F)(F)F)(C(F)(F)F)C(F)(F)F)cc1
inactive: BT-549 > 100 µM | COLO 205 > 100 µM | DU-145 > 100 µM | HOP-62 > 100 µM | Hs-578T > 100 µM | K562 > 100 µM | M14 > 100 µM | MCF7 > 100 µM | MDA-N > 100 µM | Malme-3M > 100 µM | NCI-H226 > 100 µM | OVCAR-3 > 100 µM | OVCAR-5 > 100 µM | OVCAR-8 > 100 µM | PC-3 > 100 µM | RPMI-8226 > 100 µM | SK-MEL-2 > 100 µM | SK-OV-3 > 100 µM | SNB-19 > 100 µM | SR > 100 µM

CSc1c(C#N)c(N)nc2c(/N=N\c3ccc(Cl)cc3)c(N)nn12
inactive: BT-549 2.94 µM | COLO 205 13.5 µM | DU-145 2.24 µM | HOP-62 10.7 µM | Hs-578T 1.23 µM | K562 2.08 µM | M14 18.6 µM | MCF7 2.17 µM | MDA-N 8.04 µM | Malme-3M 6.08 µM | NCI-H226 16.9 µM | OVCAR-3 1.85 µM | OVCAR-5 17.3 µM | OVCAR-8 2.08 µM | PC-3 2.7 µM | RPMI-8226 2.6 µM | SK-MEL-2 2.87 µM | SK-OV-3 33 µM | SNB-19 17.3 µM | SR 2.55 µM

From ChEMBL document CHEMBL1201862, “PubChem BioAssay data set” (2004)
